Test results published in ChEMBL document CHEMBL4118108, “UNC-51-like Kinase 1: From an Autophagic Initiator to Multifunctional Drug Target” (J Med Chem, 2018).

Assays:
[1] = system: MDA-MB-231; assay: Antiproliferative activity against human MDA-MB-231 cells by MTT assay; assay type: functional, cell-based
[2] = molecular target: T1, Serine/threonine-protein kinase ULK2 (Homo sapiens, UniProt Q8IYT8); assay: Inhibition of GST-tagged ULK2 (unknown origin)
T1 sequence (Q8IYT8 whole entry): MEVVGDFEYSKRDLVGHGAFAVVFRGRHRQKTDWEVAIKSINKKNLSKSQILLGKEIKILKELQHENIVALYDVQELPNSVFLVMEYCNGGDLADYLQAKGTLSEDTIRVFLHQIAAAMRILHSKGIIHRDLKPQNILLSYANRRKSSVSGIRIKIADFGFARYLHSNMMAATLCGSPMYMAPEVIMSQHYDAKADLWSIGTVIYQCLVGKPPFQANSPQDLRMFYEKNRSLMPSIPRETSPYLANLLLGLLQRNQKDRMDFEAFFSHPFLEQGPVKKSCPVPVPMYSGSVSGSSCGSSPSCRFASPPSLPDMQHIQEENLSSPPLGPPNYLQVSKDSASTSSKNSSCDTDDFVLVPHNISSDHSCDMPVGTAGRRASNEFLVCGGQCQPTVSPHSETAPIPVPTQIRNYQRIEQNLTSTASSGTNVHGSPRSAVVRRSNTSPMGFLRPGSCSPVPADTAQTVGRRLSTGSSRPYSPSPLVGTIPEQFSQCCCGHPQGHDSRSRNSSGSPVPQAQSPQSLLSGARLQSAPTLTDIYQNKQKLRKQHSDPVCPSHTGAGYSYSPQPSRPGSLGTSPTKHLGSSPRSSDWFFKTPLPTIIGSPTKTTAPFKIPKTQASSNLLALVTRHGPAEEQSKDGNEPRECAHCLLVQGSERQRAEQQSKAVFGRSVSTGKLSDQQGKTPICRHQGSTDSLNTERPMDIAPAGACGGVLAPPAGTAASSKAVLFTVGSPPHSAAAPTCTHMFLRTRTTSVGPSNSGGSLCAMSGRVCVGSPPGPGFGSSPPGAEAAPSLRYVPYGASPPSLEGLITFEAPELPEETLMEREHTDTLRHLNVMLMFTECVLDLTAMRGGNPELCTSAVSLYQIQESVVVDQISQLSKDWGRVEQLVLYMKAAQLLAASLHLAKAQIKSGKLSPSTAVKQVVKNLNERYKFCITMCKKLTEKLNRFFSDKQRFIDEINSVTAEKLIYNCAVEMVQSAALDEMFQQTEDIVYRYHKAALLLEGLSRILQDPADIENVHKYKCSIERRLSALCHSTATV

| Compound | IC50 [1] [nM] | IC50 [2] [nM] |
| --- | --- | --- |
| CC(C)CN(CC(=O)N1CCN(CC(OCc2ccc3ccccc3c2)c2ccc(Cl)cc2Cl)CC1)CC(C)C (configuration not stated) | 1660 |  |
| CNC(=O)c1ccccc1Oc1nc(Nc2cc(OC)c(OC)c(OC)c2)ncc1Br |  | 711 |
